Measured values from US20190388494A1, “THERAPEUTIC COMBINATIONS FOR THE TREATMENT OF BACTERIAL INFECTIONS” (SETLANCE S.R.L., priority 2017, published 2019).
In brackets after ≈: the same amount, converted by molar mass. Read-outs that look alike come from different tables or passages of the source.

Legend:
[1] = system: P. aeruginosa 854; test: microbe, parasite or virus in culture; type: cell-based, Pseudomonas aeruginosa
Method: (§1) Activity of SET-M33 and antibiotics was evaluated on six well characterized clinical strains. The strains were selected according to their resistance phenotypes and genotypes.
(§2) MICs were determined using a standard broth microdilution assay according to the guidelines of the Clinical and Laboratory Standards Institute.

[2] = system: A. baumannii VA566/00; test: MIC, standard broth microdilution; type: cell-based; details: Acinetobacter baumannii
Method: as §1, §2

[3] = system: P. aeruginosa AV65; test: MIC, standard broth microdilution; type: cell-based; details: Pseudomonas aeruginosa
Method: as §1, §2

[4] = system: A. baumannii N50; test: microbe, parasite or virus in culture; type: cell-based; details: Acinetobacter baumannii
Method: as §1, §2

[5] = system: K. pneumoniae 044-R; test: microbe, parasite or virus in culture; type: cell-based; details: Klebsiella pneumoniae; agent alone; K. pneumoniae 044-R (XDR, KPC, colR)
Method: as §1, §2

[6] = system: K. pneumoniae KKBO-4; test: microbe, parasite or virus in culture; type: cell-based; details: Klebsiella pneumoniae, KKBO4
Method: as §1, §2

[7] = system: K. pneumoniae 044-R; test: Antimicrobial activity in combination, checkerboard method; type: cell-based, Klebsiella pneumoniae; details: for MIC in combination, ATB: antimicrobial agent in combination with SET-M33
Method: as §1
(§3) Antimicrobial activity in combination was evaluated, in duplicate for each of the six strains, with the checkerboard method using cation-adjusted Mueller-Hinton broth (MHB) in 96-well microtiter plates (Sarstedt, Inc., Newton, N.C.). Assays were performed using a final bacterial inoculum of 5×10^4 CFU/well in a final volume of 100 μl. Results were recorded after 20 h of incubation at 35° C. The total fractional inhibitory concentration (ΣFIC) for each antibiotic combination was calculated according to EUCAST definitive document E.Def 1.2 [16] as follows: ΣFIC equals FIC of agent A plus FIC of agent B, where the FIC of agent A or B is the MIC of agent A or B in the presence of the other divided by the MIC of agent A or B alone. Results were interpreted according to the following definition: a ΣFIC of ≤0.5 indicated synergism, a ΣFIC of >0.5 to 1 indicated additivity, a ΣFIC of >1 to <2 indicated indifference, and a ΣFIC of ≥2 antagonism.

[8] = system: K. pneumoniae KKBO-4; test: as above; type: cell-based, Klebsiella pneumoniae; details: for MIC in combination, ATB: antimicrobial agent in combination with SET-M33
Method: as §1, §3

[9] = system: P. aeruginosa 854; test: as above; type: cell-based, Pseudomonas aeruginosa; details: for MIC in combination, ATB: antimicrobial agent in combination with SET-M33
Method: as §1, §3

[10] = system: P. aeruginosa AV65; test: as above; type: cell-based, Pseudomonas aeruginosa; details: for MIC in combination, ATB: antimicrobial agent in combination with SET-M33
Method: as §1, §3

[11] = system: A. baumannii N50; test: as above; type: cell-based, Acinetobacter baumannii; details: for MIC in combination, ATB: antimicrobial agent in combination with SET-M33
Method: as §1, §3

[12] = system: A. baumannii VA566/00; test: as above; type: cell-based, Acinetobacter baumannii; details: for MIC in combination, ATB: antimicrobial agent in combination with SET-M33
Method: as §1, §3

[13] = system: 6 MDR/XDR Gram-negative strains; type: cell-based
Method: as §1, §2

[14] = system: 6 MDR/XDR Gram-negative strains; test: Checkerboard combination testing, summary over the six strains; type: cell-based
Method: as §1, §3

[15] = agent alone, K. pneumoniae KKBO-4 (XDR, KPC, colR), read-out: MIC
[16] = Pseudomonas aeruginosa, agent alone, P. aeruginosa 854 (XDR, VIM-1), read-out: MIC
[17] = agent alone, A. baumannii N50 (MDR, OXA-24, colR), read-out: MIC
[18] = SET-M33 in combination with aztreonam
[19] = SET-M33 in combination with meropenem
[20] = SET-M33 in combination with rifampin
[21] = SET-M33 in combination with tobramycin

SMILES: C[C@@H](O)[C@H]1C(=O)N2C(C(=O)O)=C(S[C@@H]3CN[C@H](C(=O)N(C)C)C3)[C@H](C)[C@H]12 [meropenem]
- MIC ([1]; Pseudomonas aeruginosa, 854): 512 µg/mL (≈ 1340 µM)
- MIC ([2]; VA566/00): 512 µg/mL (≈ 1340 µM)
- MIC ([3]; AV65): 256 µg/mL (≈ 668 µM)
- MIC ([4]; N50): 256 µg/mL (≈ 668 µM)
- MIC [5]: 64 µg/mL (≈ 167 µM)
- MIC [6, 15]: 64 µg/mL (≈ 167 µM)
- MIC in combination, ATB [7]: 32 µg/mL
- MIC in combination, ATB [8]: 32 µg/mL
- MIC in combination, ATB [9]: 16 µg/mL
- MIC in combination, ATB [10]: 64 µg/mL
- MIC in combination, ATB [11]: 64 µg/mL
- MIC in combination, ATB [12]: 4 µg/mL

SMILES: NC[C@H]1O[C@H](O[C@H]2[C@H](O)[C@@H](O[C@H]3O[C@H](CO)[C@@H](O)[C@H](N)[C@H]3O)[C@H](N)C[C@@H]2N)[C@H](N)C[C@@H]1O [tobramycin]
- MIC [1, 16]: 256 µg/mL (≈ 548 µM)
- MIC ([2]; agent alone, A. baumannii VA566/00 (MDR, OXA-24), read-out: MIC): 16 µg/mL (≈ 34.2 µM)
- MIC ([3]; AV65): 128 µg/mL (≈ 274 µM)
- MIC [4, 17]: 8 µg/mL (≈ 17.1 µM)
- MIC [5]: 32 µg/mL (≈ 68.4 µM)
- MIC [6, 15]: 32 µg/mL (≈ 68.4 µM)
- MIC in combination, ATB [7]: 16 µg/mL
- MIC in combination, ATB [8]: 16 µg/mL
- MIC in combination, ATB [9]: 256 µg/mL
- MIC in combination, ATB [10]: 128 µg/mL
- MIC in combination, ATB [11]: 0.5 µg/mL
- MIC in combination, ATB [12]: 4 µg/mL

SMILES: CO[C@H]1/C=C/O[C@@]2(C)Oc3c(C)c(O)c4c(O)c(c(/C=N/N5CCN(C)CC5)c(O)c4c3C2=O)NC(=O)/C(C)=C\C=C\[C@H](C)[C@H](O)[C@@H](C)[C@@H](O)[C@@H](C)[C@H](OC(C)=O)[C@@H]1C [rifampin]
- MIC [1, 16]: 32 µg/mL (≈ 38.9 µM)
- MIC ([2]; VA566/00): 256 µg/mL (≈ 311 µM)
- MIC ([3]; AV65): 128 µg/mL (≈ 156 µM)
- MIC [4, 17]: 64 µg/mL (≈ 77.8 µM)
- MIC [5]: 64 µg/mL (≈ 77.8 µM)
- MIC [6]: 128 µg/mL (≈ 156 µM)
- MIC in combination, ATB [7]: 16 µg/mL
- MIC in combination, ATB [8]: 32 µg/mL
- MIC in combination, ATB [9]: 8 µg/mL
- MIC in combination, ATB [10]: 64 µg/mL
- MIC in combination, ATB [11]: 4 µg/mL
- MIC in combination, ATB [12]: 2 µg/mL

SMILES: C[C@H]1[C@H](NC(=O)/C(=N\OC(C)(C)C(=O)O)c2csc(N)n2)C(=O)N1S(=O)(=O)O [aztreonam]
- MIC ([1]; Pseudomonas aeruginosa, 854): 128 µg/mL (≈ 294 µM)
- MIC ([2]; VA566/00): 512 µg/mL (≈ 1180 µM)
- MIC ([3]; agent alone, P. aeruginosa AV65 (XDR, IMP-13), read-out: MIC): 32 µg/mL (≈ 73.5 µM)
- MIC ([4]; N50): 128 µg/mL (≈ 294 µM)
- MIC in combination, ATB [9]: 64 µg/mL
- MIC in combination, ATB [10]: 1 µg/mL
- MIC in combination, ATB [11]: 32 µg/mL
- MIC in combination, ATB [12]: 16 µg/mL

SMILES: CC[C@H](C)[C@H](NC(=O)[C@H](CCCCN)NC(=O)[C@@H](N)CCCCN)C(=O)N[C@@H](CCCNC(=N)N)C(=O)N[C@H](C(=O)N[C@@H](CCCNC(=N)N)C(=O)N[C@@H](CC(C)C)C(=O)N[C@@H](CO)C(=O)N[C@@H](C)C(=O)O)C(C)C (stereo in doubt) [SET-M33]
- MIC [1]; 854: 16 µg/mL (≈ 14.9 µM)
- MIC in combination, SET-M33 [7, 18]: 8 µg/mL
- MIC in combination, SET-M33 [7, 19]: 8 µg/mL
- MIC in combination, SET-M33 [7, 20]: 4 µg/mL
- MIC in combination, SET-M33 [7, 21]: 16 µg/mL
- MIC in combination, SET-M33 [8, 18]: 8 µg/mL
- MIC in combination, SET-M33 [8, 19]: 8 µg/mL
- MIC in combination, SET-M33 [8, 20]: 4 µg/mL
- MIC in combination, SET-M33 [8, 21]: 16 µg/mL
- MIC in combination, SET-M33 [9, 18]: 8 µg/mL
- MIC in combination, SET-M33 [9, 19]: 8 µg/mL
- MIC in combination, SET-M33 [9, 20]: 8 µg/mL
- MIC in combination, SET-M33 [9, 21]: 8 µg/mL
- MIC in combination, SET-M33 [10, 18]: 8 µg/mL
- MIC in combination, SET-M33 [10, 19]: 4 µg/mL
- MIC in combination, SET-M33 [10, 20]: 8 µg/mL
- MIC in combination, SET-M33 [10, 21]: 2 µg/mL
- MIC in combination, SET-M33 [11, 18]: 4 µg/mL
- MIC in combination, SET-M33 [11, 19]: 4 µg/mL
- MIC in combination, SET-M33 [11, 20]: 8 µg/mL
- MIC in combination, SET-M33 [11, 21]: 8 µg/mL
- MIC in combination, SET-M33 [12, 18]: 4 µg/mL
- MIC in combination, SET-M33 [12, 19]: 4 µg/mL
- MIC in combination, SET-M33 [12, 20]: 4 µg/mL
- MIC in combination, SET-M33 [12, 21]: 8 µg/mL
- MIC values [13]: 4 to 32 µg/mL
- interaction in combination (ΣFIC interpretation) ([14]; SET-M33 in combination with aztreonam, colistin-resistant strains of K. pneumoniae): synergistic activity
- interaction in combination (ΣFIC interpretation) ([14]; SET-M33 in combination with ciprofloxacin, data not shown): Additivity
- interaction in combination (ΣFIC interpretation) ([14]; SET-M33 in combination with rifampin, colistin-resistant strains of K. pneumoniae): synergistic activity
- interaction in combination (ΣFIC interpretation) ([14]; SET-M33 in combination with tobramycin, one of the A. baumannii strains): Synergy
- effect of combination on SET-M33 MIC values ([14]; when a synergistic effect was present, e.g. with rifampin, aztreonam and tobramycin): moderately affected
- effect of combination on SET-M33 MIC values ([14]; when the effect was additive or indifferent): not affected
